From publication PMC9403976, “Elucidating the path to Plasmodium prolyl-tRNA synthetase inhibitors that overcome halofuginone resistance” (Nature Communications, 2022)
“And” between values parts separate entries of the source, which are not always exact repeats. Equal values may be shown once. Read-outs that look alike come from different tables or passages of the source.

Key:
P. falciparum Dd2-2D4 = assay: P. falciparum asexual blood stage (ABS) growth assay, SYBR Green, 72 h, wild-type parasites; format: cell-based, Plasmodium falciparum; settings: for ABS growth dose-response, normalized signal (Replicates 1-3): Dd2-2D4
[1] = tested on: halofuginone-induced P. falciparum (elevated proline homeostasis); assay: P. falciparum ABS growth assay, SYBR Green, 72 h, halofuginone-induced parasites; format: cell-based, Plasmodium falciparum
Source text: Parasites were maintained under standard culture conditions as described previously[56],[57]. […] The P. falciparum Dd2 cell lines used in this study (Dd2-2D4, halofuginone-induced, and HFGR-I) have previously undergone whole genome sequencing in our labs. They were also routinely assayed and EC50 values determined using the ABS growth assay (see below) with a panel of standard antimalarial compounds, including halofuginone which has differential activity for the three Dd2 lines used in these experiments. Data were cross-referenced for consistency with literature reported values and data previously acquired in the lab.
This assay was performed as previously described. In short, P. falciparum erythrocytic-stage parasites at 1% parasitemia and 1% hematocrit in RPMI + 0.5% Albumax were seeded at 40 μL/well in 384-well plates with test compounds in triplicate, dose-response format with 10 μM dihydroartemisinin as a kill-control and blank (no compound) wells as a growth-control. […] After 72 h, growth was quantified by measuring fluorescence (Molecular Devices SpectraMax iD5) following SYBR Green 1 staining. Data were analyzed in Excel and plotted in PRISM (V. 8.4.3–9.1.0, GraphPad).

PfcProRS = target: T1, PfcProRS (Plasmodium falciparum, UniProt Q8I5R7); format: binding; settings: single replicates
T1 construct: made in house; host or cells: E. coli SoluBL-21
T1 sequence (Q8I5R7 249-746): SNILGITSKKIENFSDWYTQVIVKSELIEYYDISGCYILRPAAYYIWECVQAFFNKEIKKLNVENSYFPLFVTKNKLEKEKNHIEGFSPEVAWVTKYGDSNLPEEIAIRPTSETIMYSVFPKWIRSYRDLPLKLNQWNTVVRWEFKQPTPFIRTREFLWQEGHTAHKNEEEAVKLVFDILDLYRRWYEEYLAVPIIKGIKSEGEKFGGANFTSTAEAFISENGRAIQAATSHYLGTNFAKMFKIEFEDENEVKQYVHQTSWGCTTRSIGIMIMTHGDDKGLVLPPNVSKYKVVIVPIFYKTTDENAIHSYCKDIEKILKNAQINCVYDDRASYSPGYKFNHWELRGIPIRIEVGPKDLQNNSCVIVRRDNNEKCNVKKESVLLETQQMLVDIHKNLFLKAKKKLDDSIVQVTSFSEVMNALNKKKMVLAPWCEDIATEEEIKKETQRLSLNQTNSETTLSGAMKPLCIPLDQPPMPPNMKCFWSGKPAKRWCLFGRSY

HsProRS = HsProRS (Homo sapiens, UniProt P07814); assay: TR-FRET ligand displacement assay with tracer MAT379 (CoraFluor-1-Halo and anti-His6 antibody formats); format: binding; set-up: made in house; host or cells: E. coli SoluBL-21; settings: for TR-FRET dose-response, normalized signal (SI Fig 11): individual replicates
HsProRS, sequence (P07814 996-1512): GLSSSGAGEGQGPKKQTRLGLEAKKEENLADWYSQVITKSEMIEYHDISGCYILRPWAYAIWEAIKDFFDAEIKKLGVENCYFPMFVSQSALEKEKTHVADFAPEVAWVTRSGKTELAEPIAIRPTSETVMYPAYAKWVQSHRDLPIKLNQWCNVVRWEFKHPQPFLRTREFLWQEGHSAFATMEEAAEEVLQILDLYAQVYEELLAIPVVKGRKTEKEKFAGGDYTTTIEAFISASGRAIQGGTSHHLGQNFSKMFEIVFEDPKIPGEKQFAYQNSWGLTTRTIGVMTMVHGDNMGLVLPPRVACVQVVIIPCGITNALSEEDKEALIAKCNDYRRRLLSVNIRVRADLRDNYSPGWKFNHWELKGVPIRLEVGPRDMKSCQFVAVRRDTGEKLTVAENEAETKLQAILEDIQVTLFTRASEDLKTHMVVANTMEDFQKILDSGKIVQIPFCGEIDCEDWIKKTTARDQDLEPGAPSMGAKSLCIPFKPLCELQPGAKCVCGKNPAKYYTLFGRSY

O=C(NC1Cc2ccccc2C1)c1nccnc1NC(=O)C1CCC1 [compound 20]
ABS growth dose-response, normalized signal (Replicates 1-3) (P. falciparum Dd2-2D4; Log[inhibitor] (M) -5.000): 1
ABS growth dose-response, normalized signal (Replicates 1-3) (P. falciparum Dd2-2D4; Log[inhibitor] (M) -5.301): 7
EC50 (P. falciparum Dd2-2D4; Plasmodium falciparum, DD2, SI Fig 16b, values on -log scale, read-out: ABS - Dd2-2D4 (converted)): 3.74 µM
dose-response value, Replicates 1-3 (SI Fig 2e) ([1]; Log[inhibitor] (M) -8.699): 102
dose-response value, Replicates 1-3 (SI Fig 2e) ([1]; Log[inhibitor] (M) -9.000): 101
dose-response signal (normalized), SI Fig 8 (PfcProRS; Log[inhibitor] (M) -5.000): -3.34E-02 and -2.16E-02 and 4.43E-02
dose-response signal (normalized), SI Fig 8 (PfcProRS; Log[inhibitor] (M) -5.301): 9.72E-02 and 2.14E-03 and 9.57E-02
dose-response signal (normalized), SI Fig 8 (PfcProRS; Log[inhibitor] (M) -5.601): 1.29E-01 and 1.68E-01 and 1.72E-01
dose-response signal (normalized), SI Fig 8 (PfcProRS; Log[inhibitor] (M) -5.904): 2.39E-01 and 2.05E-01 and 1.23E-01
dose-response signal (normalized), SI Fig 8 (PfcProRS; Log[inhibitor] (M) -6.208): 3.45E-01 and 2.90E-01 and 4.22E-01
dose-response signal (normalized), SI Fig 8 (PfcProRS; Log[inhibitor] (M) -6.509): 6.21E-01 and 6.16E-01 and 6.02E-01
dose-response signal (normalized), SI Fig 8 (PfcProRS; Log[inhibitor] (M) -6.796): 8.63E-01 and 8.36E-01 and 8.81E-01
dose-response signal (normalized), SI Fig 8 (PfcProRS; Log[inhibitor] (M) -7.108): 1.04E+00 and 9.78E-01 and 9.41E-01
dose-response signal (normalized), SI Fig 8 (PfcProRS; Log[inhibitor] (M) -7.409): 1.10E+00 and 1.00E+00 and 1.03E+00
dose-response signal (normalized), SI Fig 8 (PfcProRS; Log[inhibitor] (M) -7.710): 1.05E+00 and 1.02E+00 (2×)
dose-response signal (normalized), SI Fig 8 (PfcProRS; Log[inhibitor] (M) -8.000): 1.14E+00 and 1.06E+00 and 1.15E+00
dose-response signal (normalized), SI Fig 8 (PfcProRS; Log[inhibitor] (M) -8.301): 1.07E+00 and 1.03E+00 and 9.53E-01
dose-response signal (normalized), SI Fig 8 (PfcProRS; Log[inhibitor] (M) -8.602): 1.04E+00 and 1.07E+00 and 9.70E-01
dose-response signal (normalized), SI Fig 8 (PfcProRS; Log[inhibitor] (M) -9.000): 1.05E+00 and 1.02E+00 and 1.08E+00
dose-response signal (normalized), SI Fig 8 (PfcProRS; Log[inhibitor] (M) -9.301): 1.08E+00 and 9.05E-01 and 9.37E-01
Kd (HsProRS; HsProRS (KD [nM]) mean, no added proline/ATP (-)): 738 nM
Kd (HsProRS; HsProRS - best Kd, SI Fig 16a, values on -log scale): 13.2 nM
normalized TR-FRET ligand displacement signal, dose-response replicates (SI Fig 6) (HsProRS; Log[inhibitor] (M) -5.000): 1.86E-01 and 1.74E-01 and 2.39E-01
TR-FRET dose-response, normalized signal (SI Fig 11) (HsProRS; Log[inhibitor] (M) -5.000): 1.04E-01 and 5.16E-02 and 1.08E-01
normalized TR-FRET ligand displacement signal, dose-response replicates (SI Fig 6) (HsProRS; Log[inhibitor] (M) -5.301): 4.97E-01 and 4.61E-01 and 4.31E-01
TR-FRET dose-response, normalized signal (SI Fig 11) (HsProRS; Log[inhibitor] (M) -5.301): 1.41E-01 and 1.42E-01 and 1.77E-01
normalized TR-FRET ligand displacement signal, dose-response replicates (SI Fig 6) (HsProRS; Log[inhibitor] (M) -5.601): 6.11E-01 and 7.58E-01 and 7.79E-01
TR-FRET dose-response, normalized signal (SI Fig 11) (HsProRS; Log[inhibitor] (M) -5.601): 3.04E-01 and 2.78E-01 and 2.50E-01
normalized TR-FRET ligand displacement signal, dose-response replicates (SI Fig 6) (HsProRS; Log[inhibitor] (M) -5.904): 8.89E-01 and 8.92E-01 and 8.45E-01
TR-FRET dose-response, normalized signal (SI Fig 11) (HsProRS; Log[inhibitor] (M) -5.904): 4.25E-01 and 3.97E-01 and 4.79E-01
normalized TR-FRET ligand displacement signal, dose-response replicates (SI Fig 6) (HsProRS; Log[inhibitor] (M) -6.208): 9.16E-01 and 8.68E-01 and 9.52E-01
TR-FRET dose-response, normalized signal (SI Fig 11) (HsProRS; Log[inhibitor] (M) -6.208): 6.09E-01 and 5.97E-01 and 5.95E-01
normalized TR-FRET ligand displacement signal, dose-response replicates (SI Fig 6) (HsProRS; Log[inhibitor] (M) -6.509): 1.03E+00 and 8.94E-01 and 8.53E-01
TR-FRET dose-response, normalized signal (SI Fig 11) (HsProRS; Log[inhibitor] (M) -6.509): 6.97E-01 and 7.43E-01 and 6.91E-01
normalized TR-FRET ligand displacement signal, dose-response replicates (SI Fig 6) (HsProRS; Log[inhibitor] (M) -6.796): 1.03E+00 (2×) and 1.11E+00
TR-FRET dose-response, normalized signal (SI Fig 11) (HsProRS; Log[inhibitor] (M) -6.796): 8.43E-01 and 8.17E-01 and 8.38E-01
normalized TR-FRET ligand displacement signal, dose-response replicates (SI Fig 6) (HsProRS; Log[inhibitor] (M) -7.108): 9.80E-01 and 1.08E+00 and 1.02E+00
TR-FRET dose-response, normalized signal (SI Fig 11) (HsProRS; Log[inhibitor] (M) -7.108): 8.72E-01 and 8.51E-01 and 8.01E-01
normalized TR-FRET ligand displacement signal, dose-response replicates (SI Fig 6) (HsProRS; Log[inhibitor] (M) -7.409): 9.83E-01 and 1.12E+00 and 9.82E-01
TR-FRET dose-response, normalized signal (SI Fig 11) (HsProRS; Log[inhibitor] (M) -7.409): 9.24E-01 and 8.62E-01 and 9.39E-01
normalized TR-FRET ligand displacement signal, dose-response replicates (SI Fig 6) (HsProRS; Log[inhibitor] (M) -7.710): 9.31E-01 and 9.49E-01 and 8.80E-01
TR-FRET dose-response, normalized signal (SI Fig 11) (HsProRS; Log[inhibitor] (M) -7.710): 9.14E-01 and 9.13E-01 and 9.09E-01
normalized TR-FRET ligand displacement signal, dose-response replicates (SI Fig 6) (HsProRS; Log[inhibitor] (M) -8.000): 1.05E+00 and 9.80E-01 and 9.83E-01
TR-FRET dose-response, normalized signal (SI Fig 11) (HsProRS; Log[inhibitor] (M) -8.000): 9.16E-01 and 9.29E-01 and 9.47E-01
normalized TR-FRET ligand displacement signal, dose-response replicates (SI Fig 6) (HsProRS; Log[inhibitor] (M) -8.301): 9.29E-01 and 1.08E+00 and 8.52E-01
TR-FRET dose-response, normalized signal (SI Fig 11) (HsProRS; Log[inhibitor] (M) -8.301): 9.16E-01 and 9.69E-01 and 9.32E-01
normalized TR-FRET ligand displacement signal, dose-response replicates (SI Fig 6) (HsProRS; Log[inhibitor] (M) -8.602): 9.34E-01 and 1.03E+00 and 1.00E+00
TR-FRET dose-response, normalized signal (SI Fig 11) (HsProRS; Log[inhibitor] (M) -8.602): 9.06E-01 and 9.54E-01 and 9.32E-01
normalized TR-FRET ligand displacement signal, dose-response replicates (SI Fig 6) (HsProRS; Log[inhibitor] (M) -9.000): 1.01E+00 and 9.37E-01 and 8.87E-01
TR-FRET dose-response, normalized signal (SI Fig 11) (HsProRS; Log[inhibitor] (M) -9.000): 9.11E-01 and 9.90E-01 and 9.12E-01
normalized TR-FRET ligand displacement signal, dose-response replicates (SI Fig 6) (HsProRS; Log[inhibitor] (M) -9.301): 9.68E-01 and 9.96E-01 and 9.12E-01
TR-FRET dose-response, normalized signal (SI Fig 11) (HsProRS; Log[inhibitor] (M) -9.301): 9.37E-01 and 9.39E-01 and 8.38E-01
